# Experimental data: patent publication US20230128137A1, “BENZO FIVE-MEMBERED CYCLIC COMPOUND” (MEDSHINE DISCOVERY INC., priority 2020, published 2023)
# “And” between values parts separate entries of the source, which are not always exact repeats. Equal values may be shown once.
# Columns and labels:
# Bcl-2 = biological target: T1, Bcl-2 (Homo sapiens, UniProt P10415); experiment: HTRF competition test, Bcl-2 with FAM-BAK peptide (enzymology experiment); assay type: binding; details: 4 nM Bcl-2 and 100 nM FAM-BAK, read-out: IC50 (nM) for inhibition of Bcl-2 enzyme
# T1 construct: Human recombinant Bcl-2 (amino acid 1-207); purchased Reaction Biology Corporation (RBC) APT-11-441; host or cells: E. coli
# Protocol: (§1) This experiment was based on the competition between fluorescently-labeled Bak/Bad/Noxa peptides and GST-labeled Bcl family proteins. The fluorescence detection method based on HTRF was to observe the binding degree by using the fluorescence ratio between Tb-labeled anti-GST and FAM-labeled peptides. This peptide binds to the surface of the Bcl family protein pocket, which is essential for its anti-apoptotic function.
# (§2) 1.1 Experimental reagents: analysis buffer: 20 mM potassium phosphate, pH 7.5, 50 mM sodium chloride, 1 mM EDTA, 0.005% Tritonx-100 and 1% DMSO.
# (§3) 1.2 Probe: 5,6-FAM-peptide
# (§4) 1.4 Experimental Conditions:
# 4 nM Bcl-2 and 100 nM FAM-BAK
# (§5) a) The Bcl enzyme reaction solution was prepared in the newly prepared analysis buffer;
# (§6) b) the Bcl enzyme reaction solution was provided;
# (§7) c) the compound was first prepared into a 100% dimethyl sulfoxide solution, and then the compound solution was mixed with the Bcl enzyme reaction solution using (Echo550; nanoliter range) technology, and co-incubated for 10 minutes;
# (§8) d) the FAM peptide solution was added.
# (§9) e) the mixed solution was gently stirred in dark and room temperature, and co-cultured for 10 minutes.
# (§10) f) Anti-GST solution was added.
# (§11) g) The mixed solution was gently stirred in dark and room temperature, and co-cultured for 1 hour.
# (§12) h) The HTRF high-frequency fluorescence ratio was tested, and the IC50 values were calculated.
# [1] = test system: human acute lymphoblastic leukemia cell RS4;11 graft tumor; experiment: In vivo anti-tumor effect, RS4;11 graft tumor model in BALB/c nude mice; design: species or system BALB/c nude mouse; details: for T/C (relative tumor proliferation rate) / TGI (tumor growth inhibition rate): based on tumor volume on day 32
# Protocol: 5.1 Experimental animals: Balb/c nude mice, 32 mice, 7 to 8 weeks old, female;
# 5.2 tumor cells: human acute lymphoblastic leukemia cell line RS4;11, cultured in a suspension in vitro, and the culture conditions were RPMI-1640 culture medium containing 10% fetal bovine serum, cultured in a 5% CO2 incubator at 37° C. When the cells were in exponential growth period and the saturation was 80% to 90%, the cells were collected and counted;
# 5.3 cell seeding and grouping: the cells were resuspended in […], and the basement membrane matrigel was added in 1:1, and the mixture was mixed well, and the density was 5×10^7 cells/mL. 0.2 mL of cell suspension (containing 1×10^7 RS4;11 cells) was subcutaneously inoculated on the right back of each mouse, and when the average tumor volume reached about 120 mm^3, the drug was administered randomly according to the tumor volume;
# 5.4 preparation of the subject: an appropriate amount of compound 2 was weighed respectively, and the solvent formula was 2.5% dimethyl sulfoxide, 5% ethanol, 10% cremophor EL, 20% glucose solution (concentration of 5%), 62.5% water;
# 5.5 tumor-bearing mice divided into four groups (8 mice in each group) were given blank solvent, compound 2 (12.5 mpk, QD), compound 2 (25 mpk, QD) and compound 2 (50 mpk, QD), respectively;
# 5.6 tumor measurement and experimental indicators:
# tumor diameters were measured with vernier calipers two times a week. The calculation formula of tumor volume is: V=0.5×a×b^2, a represents the long diameter of the tumor, and b represents the short diameter of the tumor. The tumor inhibition efficacy of the compounds was evaluated by TGI (%) or relative tumor proliferation rate T/C (%).
# Relative tumor proliferation rate T/C %=TRTV/CRTV×100% (TRTV: RTV in the treatment group; CRTV: RTV in the negative control group). The relative tumor volume (RTV) is calculated according to the results of tumor measurement, and the formula is RTV=Vt/V0, where V0 is the tumor volume measured at the time of group administration (i.e., D0), and Vt is the tumor volume measured at a certain measurement, TRTV and CRTV were taken on the same day.
# TGI (%), reflecting the tumor growth inhibition rate. The formula for calculating the tumor inhibition efficacy TGI is: […]
# Bcl-xL = biological target: T2, Bcl-xL (Homo sapiens, UniProt Q07817); experiment: HTRF competition test, Bcl-xL with FAM-Bad peptide (enzymology experiment); assay type: binding; details: 3 nM Bcl-xL and 40 nM FAM-Bad, read-out: IC50 (nM) for inhibition of Bcl-xL enzyme
# T2 construct: Human recombinant Bcl-xL (amino acid 1-209); purchased Reaction Biology Corporation (RBC) APT-11-442; host or cells: E. coli
# Protocol: as §1, §2, §3, §4
# 3 nM Bcl-xL and 40 nM FAM-Bad
# as §5, §6, §7, §8, §9, §10, §11, §12
# T1 sequence (P10415 1-207): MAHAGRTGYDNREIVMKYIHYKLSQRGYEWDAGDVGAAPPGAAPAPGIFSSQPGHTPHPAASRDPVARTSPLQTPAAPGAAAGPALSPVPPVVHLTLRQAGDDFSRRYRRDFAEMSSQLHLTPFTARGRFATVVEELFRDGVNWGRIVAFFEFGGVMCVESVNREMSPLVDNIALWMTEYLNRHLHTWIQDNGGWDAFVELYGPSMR
# T2 sequence (Q07817 1-209): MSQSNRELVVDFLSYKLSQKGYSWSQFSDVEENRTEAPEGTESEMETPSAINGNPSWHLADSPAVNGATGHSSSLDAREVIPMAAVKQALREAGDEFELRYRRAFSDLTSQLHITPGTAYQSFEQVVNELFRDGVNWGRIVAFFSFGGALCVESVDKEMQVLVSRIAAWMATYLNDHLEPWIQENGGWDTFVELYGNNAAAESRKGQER
structure (smiles),measurement,setting,value
CC1(C)CCC(CN2CCN(c3ccc(C(=O)NS(=O)(=O)c4cc([N+](=O)[O-])c(NCC5CCOCC5)c5[nH]cnc45)c(Oc4cnc5[nH]ccc5c4)c3)CC2)=C(c2ccc(Cl)cc2)C1 [Compound 2],IC50,Bcl-2,1.5 nM
same,animal state during the experiment,"[1]; 12.5, 25, 50 mpk, QD",normal
same,T/C (relative tumor proliferation rate),"[1]; 12.5 mpk, QD",22.37%
same,TGI (tumor growth inhibition rate),"[1]; 12.5 mpk, QD",82.12%
same,Tumor volume,"[1]; 12.5 mpk, QD, day 1 after administration, mean ± SEM, n = 8",114.44 ± 4.91 mm^3 and 114.44 mm^3
same,Tumor volume,"[1]; 12.5 mpk, QD, day 4 after administration",124.75 ± 10.85 mm^3
same,Tumor volume,"[1]; 12.5 mpk, QD, day 6 after administration",120.60 ± 12.60 mm^3
same,Tumor volume,"[1]; 12.5 mpk, QD, day 8 after administration",124.22 ± 15.25 mm^3
same,Tumor volume,"[1]; 12.5 mpk, QD, day 11 after administration",126.73 ± 11.57 mm^3
same,Tumor volume,"[1]; 12.5 mpk, QD, day 14 after administration",145.41 ± 17.58 mm^3
same,Tumor volume,"[1]; 12.5 mpk, QD, day 18 after administration",198.17 ± 38.18 mm^3
same,Tumor volume,"[1]; 12.5 mpk, QD, day 21 after administration",209.63 ± 39.56 mm^3
same,Tumor volume,"[1]; 12.5 mpk, QD, day 25 after administration",254.52 ± 52.29 mm^3
same,Tumor volume,"[1]; 12.5 mpk, QD, day 28 after administration",306.93 ± 66.01 mm^3
same,Tumor volume,"[1]; 12.5 mpk, QD, day 32 after administration, mean ± SEM, n = 8",365.13 ± 85.31 mm^3 and 365.13 mm^3
same,T/C (relative tumor proliferation rate),"[1]; 25 mpk, QD",16.54%
same,TGI (tumor growth inhibition rate),"[1]; 25 mpk, QD",89.15%
same,Tumor volume,"[1]; 25 mpk, QD, day 1 after administration, mean ± SEM, n = 8",114.50 ± 4.98 mm^3 and 114.50 mm^3
same,Tumor volume,"[1]; 25 mpk, QD, day 4 after administration",99.54 ± 6.66 mm^3
same,Tumor volume,"[1]; 25 mpk, QD, day 6 after administration",106.03 ± 13.15 mm^3
same,Tumor volume,"[1]; 25 mpk, QD, day 8 after administration",107.66 ± 15.62 mm^3
same,Tumor volume,"[1]; 25 mpk, QD, day 11 after administration",101.57 ± 15.87 mm^3
same,Tumor volume,"[1]; 25 mpk, QD, day 14 after administration",116.52 ± 28.85 mm^3
same,Tumor volume,"[1]; 25 mpk, QD, day 18 after administration",146.77 ± 44.03 mm^3
same,Tumor volume,"[1]; 25 mpk, QD, day 21 after administration",191.06 ± 69.68 mm^3
same,Tumor volume,"[1]; 25 mpk, QD, day 25 after administration",174.50 ± 58.56 mm^3
same,Tumor volume,"[1]; 25 mpk, QD, day 28 after administration",206.82 ± 76.64 mm^3
same,Tumor volume,"[1]; 25 mpk, QD, day 32 after administration, mean ± SEM, n = 8",266.63 ± 95.51 mm^3 and 266.63 mm^3
same,T/C (relative tumor proliferation rate),"[1]; 50 mpk, QD",7.30%
same,TGI (tumor growth inhibition rate),"[1]; 50 mpk, QD",100.27%
same,Tumor volume,"[1]; 50 mpk, QD, day 1 after administration, mean ± SEM, n = 8",114.18 ± 4.30 mm^3 and 114.18 mm^3
same,Tumor volume,"[1]; 50 mpk, QD, day 4 after administration",95.13 ± 7.43 mm^3
same,Tumor volume,"[1]; 50 mpk, QD, day 6 after administration",91.16 ± 6.08 mm^3
same,Tumor volume,"[1]; 50 mpk, QD, day 8 after administration",86.91 ± 4.92 mm^3
same,Tumor volume,"[1]; 50 mpk, QD, day 11 after administration",67.64 ± 3.93 mm^3
same,Tumor volume,"[1]; 50 mpk, QD, day 14 after administration",74.27 ± 6.37 mm^3
same,Tumor volume,"[1]; 50 mpk, QD, day 18 after administration",58.39 ± 6.94 mm^3
same,Tumor volume,"[1]; 50 mpk, QD, day 21 after administration",70.21 ± 8.91 mm^3
same,Tumor volume,"[1]; 50 mpk, QD, day 25 after administration",75.62 ± 10.30 mm^3
same,Tumor volume,"[1]; 50 mpk, QD, day 28 after administration",78.03 ± 9.52 mm^3
same,Tumor volume,"[1]; 50 mpk, QD, day 32 after administration, mean ± SEM, n = 8",110.37 ± 19.73 mm^3 and 110.37 mm^3
same,tumor inhibition effect (in words),"[1]; three dose groups (12.5, 25, 50 mpk, QD), obvious dose-dependence",significant tumor inhibition effect
same,IC50,Bcl-xL,411 nM
